Results published in patent US20250270227A1, “CAMPTOTHECIN DERIVATIVE, AND PHARMACEUTICAL COMPOSITION AND USE THEREOF” (SIMCERE ZAIMING PHARMACEUTICAL CO., LTD., priority 2021, published 2025).
pIC50: −log10 of the molar value. Where two headings read alike, the source gives them in different places.

Key:
Type in all cases: cell-based
[1] = test system: human ovarian cancer cell line OVCAR3; assay: Test 1 of anti-proliferative activity against tumor cells (Cell-Titer Glo); conditions: Homo sapiens, OVCAR-3, 120 h; for IC50: read-out: OVCAR3 Anti-proliferative activity IC50 (nM); for pIC50: OVCAR3 cells, cultured 5 days with compound, Cell-Titer Glo, read-out: OVCAR3 Anti-proliferative activity IC50
Method: (§1) Cell culture: HCT116 cells and SKBR3 cells were cultured in McCoy's 5a medium containing 10% fetal bovine serum+1% penicillin-streptomycin at 37° C. and 5% CO2, and OVCAR3 cells were cultured in 1640 medium containing 20% fetal bovine serum+2 μg/mL bovine insulin+1% penicillin-streptomycin at 37° C. and 5% CO2. Cells in logarithmic growth phase were suitable for the experiment.
(§2) Detection of cell proliferation activity: The inhibitory activity of the compounds on the proliferation of the three cell lines HCT116, SKBR3 and OVCAR3 was detected using Cell-Titer Glo reagent. HCT116 cells (1500 cells per well), SKBR3 cells (3000 cells per well) and OVCAR3 cells (5000 cells per well) were seeded in 96-well plates and cultured at 37° C. and 5% CO2 for 24 h. The solution of the compound to be tested (the compound was dissolved in DMSO with the concentration of the compound being 1 mM, then the compound was diluted to 3 μM with DMSO, with 3-fold dilution and a total of 9 concentrations, and 10 μL of the prepared compound solution was transferred to a 96-well plate with the final concentration of 0-300 nM) was added. The cells were placed at 37° C. and 5% CO2 for further culture. HCT116 cells were cultured for 3 days, and SKBR3 cells and OVCAR3 cells were cultured for 5 days. The cell viability was detected by adding Cell-Titer Glo reagent.
(§3) Additionally, a negative control group and a positive control group were provided as Bottom and Top, respectively. In the negative control group, the cells were not added, only the same volume of medium was added, and other operations were consistent with those in the experimental group; in the positive control group, the test compound was not added, only the same volume of DMSO was added, and other operations were consistent with those in the experimental group.
(§4) Data analysis: The % compound inhibition was calculated, and fitting was performed to obtain IC50 of the compound.
(§5) % Compound inhibition=1−100%*(Signal−Bottom)/(Top−Bottom).
(§6) Signal represents the signal value of the experimental group, Bottom represents the average signal value of the negative control group, and Top represents the average signal value of the positive control group.

[2] = test system: Human colorectal cancer cell line HCT116; assay: as above; conditions: for IC50: read-out: HCT116 Anti-proliferative activity IC50 (nM), HCT116 cells, cultured 3 days with compound, Cell-Titer Glo; for pIC50: read-out: HCT116 Anti-proliferative activity IC50, HCT116 cells, cultured 3 days with compound, Cell-Titer Glo
Method: as §1, §2, §3, §4, §5, §6

[3] = test system: human breast cancer cell line SKBR3; assay: as above; conditions: for IC50: read-out: SKBR3 Anti-proliferative activity IC50 (nM), SKBR3 cells, cultured 5 days with compound, Cell-Titer Glo; for pIC50: read-out: SKBR3 Anti-proliferative activity IC50, SKBR3 cells, cultured 5 days with compound, Cell-Titer Glo
Method: as §1, §2, §3, §4, §5, §6

[4] = test system: human ovarian cancer cell line PA-1; assay: Test 2 of anti-proliferative activity against tumor cells (Cell-Titer Glo); conditions: Homo sapiens, PA-1, 120 h; for IC50: read-out: PA-1 Anti-proliferative activity IC50 (nM), PA-1 cells, 5 days, Cell-Titer Glo; for pIC50: PA-1 cells, 5 days, Cell-Titer Glo, read-out: PA-1 Anti-proliferative activity IC50
Method: (§7) Cell culture: SK-OV-3 cells were cultured in McCoy's 5a medium containing 10% fetal bovine serum+1% penicillin-streptomycin, PA-1 cells were cultured in MEM medium containing 10% fetal bovine serum+1% MEM NEAA+1% sodium pyruvate+1% penicillin-streptomycin, NCI-H82 cells and MDA-MB-231 cells were cultured in 1640 medium containing 10% fetal bovine serum+1% penicillin-streptomycin, A549 cells were cultured in DMEM medium containing 10% fetal bovine serum+1% penicillin-streptomycin, all under conditions of 37° C. and 5% CO2. Cells in logarithmic growth phase were suitable for the experiment.
(§8) Detection of cell proliferation activity: The inhibitory activity of the compounds on the proliferation of the five cell lines SK-OV-3, PA-1, NCI-H82, MDA-MB-231 and A549 was detected using Cell-Titer Glo reagent. SK-OV-3 cell (1000 cells per well), PA-1 cells (800 cells per well), NCI-H82 cells (5000 cells per well), MDA-MB-231 cells (3000 cells per well) and A549 cells (400 cells per well) were seeded in 96-well plates and cultured at 37° C. and 5% CO2 for 24 h. The compound to be tested was dissolved in DMSO to a concentration of 1 mM, then subjected to gradient dilution with DMSO and corresponding medium, and transferred to 96-well cell plates to a final concentration of 300 nM (initial concentration), with 3-fold dilution and a total of 9 concentration points. The cells were cultured at 37° C. and 5% CO2 for additional 5 days. The cell viability was detected by adding Cell-Titer Glo reagent.
as §3, §4, §5, §6

[5] = test system: Human ovarian cancer cell line SK-OV-3; assay: as above; conditions: Homo sapiens, SK-OV-3, 120 h; for pIC50: SK-OV-3 cells, 5 days, Cell-Titer Glo, read-out: SK-OV-3 Anti-proliferative activity IC50
Method: as §7, §8, §3, §4, §5, §6

[6] = test system: human non-small cell lung cancer cell line A549; assay: as above; conditions: Homo sapiens, A549, 120 h; for pIC50: A549 cells, 5 days, Cell-Titer Glo, read-out: A549 Anti-proliferative activity IC50
Method: as §7, §8, §3, §4, §5, §6

[7] = test system: human breast cancer cell line MDA-MB-231; assay: as above; conditions: Homo sapiens, MDA-MB-231, 120 h; for pIC50: MDA-MB-231 cells, 5 days, Cell-Titer Glo, read-out: MDA-MB-231 Anti-proliferative activity IC50
Method: as §7, §8, §3, §4, §5, §6

SMILES	IC50 [1] [nM]	IC50 ([2]; Homo sapiens, HCT-116, 72 h) [nM]	IC50 ([3]; Homo sapiens, SK-BR-3, 120 h) [nM]	pIC50 [1]	pIC50 ([3]; Homo sapiens, SK-BR-3, 120 h)	also measured
CC[C@@]1(O)C(=O)OCc2c1cc1n(c2=O)Cc2c-1nc1cc(F)c(Cl)c(F)c1c2CNC(=O)CO [Compound 21, (S)-N-((9-chloro-4-ethyl-8,10-difluoro-4-hydroxy-3,14-dioxo-3,4,12,14-tetrahydro-1H-pyrano[3′,4′:6,7]indolizino[1,2-b]quinolin-11-yl)methyl)-2-hydroxyacetamide]	1.7	7.1	4			
CC[C@@]1(O)C(=O)OCc2c1cc1n(c2=O)Cc2c-1nc1cc(F)c(Cl)c(F)c1c2CNC(=O)C(C)(C)O [Compound 22, (S)-N-((9-chloro-4-ethyl-8,10-difluoro-4-hydroxy-3,14-dioxo-3,4,12,14-tetrahydro-1H-pyrano[3′,4′:6,7]indolizino[1,2-b]quinolin-11-yl)methyl)-2-hydroxy-2-methylpropanamide]	1.4	4	3.5			
CC[C@@]1(O)C(=O)OCc2c1cc1n(c2=O)Cc2c-1nc1cc(F)c(Cl)c(F)c1c2CNC(=O)C(O)C1CC1 (stereo partly drawn) [Compound 23, N-(((S)-9-chloro-4-ethyl-8,10-difluoro-4-hydroxy-3,14-dioxo-3,4,12,14-tetrahydro-1H-pyrano[3′,4′:6,7]indolizino[1,2-b]quinolin-11-yl)methyl)-2-cyclopropyl-2-hydroxyacetamide]	3.9					pIC50 [2]: 8.25; pIC50 [3]: 8.28
CC[C@@]1(O)C(=O)OCc2c1cc1n(c2=O)Cc2c-1nc1cc(F)c(Cl)c(F)c1c2CNC(=O)C(O)C1CC1 (stereo partly drawn) [Compound 23-P1, N-(((S)-9-chloro-4-ethyl-8,10-difluoro-4-hydroxy-3,14-dioxo-3,4,12,14-tetrahydro-1H-pyrano[3′,4′:6,7]indolizino[1,2-b]quinolin-11-yl)methyl)-2-cyclopropyl-2-hydroxyacetamide]				8.72	8.24	pIC50 ([2]; Homo sapiens, HCT-116, 72 h): 8.10
CC[C@@]1(O)C(=O)OCc2c1cc1n(c2=O)Cc2c-1nc1cc(F)c(Cl)c(F)c1c2CNC(=O)[C@@H](C)O [Compound 25, (R)-N-(((S)-9-chloro-4-ethyl-8,10-difluoro-4-hydroxy-3,14-dioxo-3,4,12,14-tetrahydro-1H-pyrano[3′,4′:6,7]indolizino[1,2-b]quinolin-11-yl)methyl)-2-hydroxypropanamide]	2	7.9	3.7			
CC[C@@]1(O)C(=O)OCc2c1cc1n(c2=O)Cc2c-1nc1cc(F)c(Cl)c(F)c1c2CNC(=O)[C@H](C)O [Compound 26, (S)-N-(((S)-9-chloro-4-ethyl-8,10-difluoro-4-hydroxy-3,14-dioxo-3,4,12,14-tetrahydro-1H-pyrano[3′,4′:6,7]indolizino[1,2-b]quinolin-11-yl)methyl)-2-hydroxypropanamide]	1.6	9.5	4.2			
CC[C@@]1(O)C(=O)OCc2c1cc1n(c2=O)Cc2c-1nc1cc3c(c(F)c1c2CN)OCO3 [Compound 35, (S)-14-(aminomethyl)-7-ethyl-15-fluoro-7-hydroxy-10,13-dihydro-11H-[1,3]dioxolo[4,5-g]pyrano[3′,4′:6,7]indolizino[1,2-b]quinoline-8,11(7H)-dione]	0.9					IC50 [4]: 0.8 nM
CC[C@@]1(O)C(=O)OCc2c1cc1n(c2=O)Cc2c-1nc1cc3c(c(F)c1c2CNC(=O)C(O)C1CC1)OCO3 (stereo partly drawn) [Compound 37, 2-cyclopropyl-N-(((S)-7-ethyl-15-fluoro-7-hydroxy-8,11-dioxo-7,8,11,13-tetrahydro-10H-[1,3]dioxolo[4,5-g]pyrano[3′,4′:6,7]indolizino [1,2-b]quinolin-14-yl)methyl)-2-hydroxyacetamide]	1.2	8.1	3.5			IC50 ([5]; read-out: SK-OV-3 Anti-proliferative activity IC50 (nM)): 3.5 nM; IC50 ([6]; read-out: A549 Anti-proliferative activity IC50 (nM), A549 cells, 5 days, Cell-Titer Glo): 19.6 nM; IC50 ([7]; read-out: MDA-MB-231 Anti-proliferative activity IC50 (nM)): 23.9 nM; IC50 [4]: 0.9 nM
CC[C@@]1(O)C(=O)OCc2c1cc1n(c2=O)Cc2c-1nc1cc3c(c(F)c1c2CNC(=O)[C@@H](O)C1CC1)OCO3 [Compound 37-P2, 2-cyclopropyl-N-(((S)-7-ethyl-15-fluoro-7-hydroxy-8,11-dioxo-7,8,11,13-tetrahydro-10H-[1,3]dioxolo[4,5-g]pyrano[3′,4′:6,7]indolizino [1,2-b]quinolin-14-yl)methyl)-2-hydroxyacetamide]				8.74	8.44	pIC50 [5]: 8.52; pIC50 [6]: 7.79; pIC50 [7]: 7.59; pIC50 [4]: 8.96
[2H]C1([2H])Oc2cc3nc4c(c(CNC(=O)[C@@H](O)C5CC5)c3cc2O1)Cn1c-4cc2c(c1=O)COC(=O)[C@]2(O)CC [Compound 39-P1, 2-cyclopropyl-N-(((S)-7-ethyl-7-hydroxy-8,11-dioxo-7,8,11,13-tetrahydro-10H-[1,3]dioxolo[4,5-g]pyrano[3′,4′:6,7]indolizino[1,2-b]quinolin-14-yl-2,2-d2)methyl)-2-hydroxyacetamide]				9.22	8.72	pIC50 [5]: 8.72; pIC50 [6]: 7.86; pIC50 [7]: 7.81; pIC50 [4]: 9.05; pIC50 ([2]; Homo sapiens, HCT-116, 72 h): 8.34
